From the supplement of paper PMC10307832

Columns and labels:
Test in all cases: relative viability (nuclei count vs DMSO), 5 days (fraction); higher = more cells survive
[1] = compound: CS(=O)(=O)c1ccc(C(=O)Nc2ccc(Cl)c(-c3ccccn3)c2)c(Cl)c1 [Vismodegib] + CS(=O)(=O)CCNCc1ccc(-c2ccc3ncnc(Nc4ccc(OCc5cccc(F)c5)c(Cl)c4)c3c2)o1 [Lapatinib] (partner 2 µM)
Method in brief: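 Each reported value is a median over duplicate plates. It expresses relative viability: treated-well nuclei count divided by vehicle-well nuclei count. Lung cancer cell lines in 1536-well plates were dosed by pin tool a day after seeding, alone with one drug or with a fixed anchor-drug dose plus five library-drug doses (not always all listed) in √10 steps, and nuclei were counted after 5 days.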

[2] = compound: CS(=O)(=O)c1ccc(-c2cnc(N)c(C(=O)Nc3ccccc3)n2)cc1 [VE-821]
Method in brief: (§1)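 Only plates meeting two conditions passed: control CV below 25% and at least one doubling. Lung cancer cell lines, kept overnight at 37 °C in 1536-well plates, were pinned with five library-drug doses (not always all listed) √10 apart on vehicle-anchored plates and grown 5 days without medium change. A one-step fix, permeabilisation and Hoechst stain preceded 4× imaging and MetaXpress nuclear counting. Viability equals treated-well nuclei divided by vehicle-well nuclei, as the median over plates.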

[3] = compound: CS(=O)(=O)c1ccc(C(=O)Nc2ccc(Cl)c(-c3ccccn3)c2)c(Cl)c1 [Vismodegib]
Method in brief: as §1

[4] = compound: N#CC[C@H](C1CCCC1)n1cc(-c2ncnc3[nH]ccc23)cn1 [Ruxolitinib]
Method in brief: as §1

Work on UMC-11 yielded a relative viability ([1]; first compound 0.08 µM) of 0.915, a relative viability ([1]; first compound 0.253 µM) of 0.971 and a relative viability ([1]; first compound 0.8 µM) of 0.893. It also gave a relative viability ([1]; first compound 2.53 µM) of 0.974, a relative viability ([1]; first compound 8 µM) of 0.598 and a relative viability ([2]; 0.08 µM) of 1.08. It also gave a relative viability ([2]; 0.253 µM) of 0.915, a relative viability ([2]; 0.8 µM) of 0.948 and a relative viability ([2]; 2.53 µM) of 1.04. The relative viability ([2]; 8 µM) was 0.531, the relative viability ([3]; 0.08 µM) was 0.897 and the relative viability ([3]; 0.253 µM) was 0.919. It also gave a relative viability ([3]; 0.8 µM) of 1, a relative viability ([3]; 2.53 µM) of 0.947 and a relative viability ([3]; 8 µM) of 0.834. The relative viability ([4]; 0.08 µM) was 0.954, the relative viability ([4]; 0.253 µM) was 0.999 and the relative viability ([4]; 0.8 µM) was 1.1. It also gave a relative viability ([4]; 2.53 µM) of 1.13 and a relative viability ([4]; 8 µM) of 1.04.
